Data as given in US8192962B2, “Processes for detecting toxic substances” (Daikin Industries, Ltd., priority 2001, dated 2012).

Tested on: Metabolism protein genes
Assay: DNA chip mRNA expression in yeast, metabolism protein genes (Table 7)
Format: cell-based, Saccharomyces cerevisiae S288C
Procedure: Yeast (Saccharomyces cerevisiae S288C (α SUC2mal mel gap2 CUP1)) were incubated at 25° C. on YPD medium (yeast extract 1%, polypepton 2%, glucose 2%). One of toxic chemical substances was added to the cells at logarithmic growth phase, and the cells were further incubated for two hours. Cells were cultured without any chemical substance in the same condition, and were used as control. Concentrations of the chemical substances were defined to inhibit the growth of the yeast but not lead to death.
After completion of the incubation, the culture was centrifuged to collect the cells. To the cells, sodium acetate buffer (50 mM sodium acetate, 10 mM EDTA, 1% SDS) was added, and the mixture was shaken at 65° C. for five minutes, followed by returning to room temperature, and obtaining the supernatant, of which the procedures were repeated two times. To the supernatant, ½ amount of a solution of phenol/chloroform was added, and the mixture was centrifuged to give a supernatant, which was added with an equal amount of chloroform, and the mixture was centrifuged to give a supernatant. To the supernatant, an equal amount of isopropanol containing 0.3 M sodium acetate was added, and the mixture was allowed to stand at room temperature for 30 minutes, after which the mixture was centrifuged to give a sediment of the whole RNAs. Seventy % ethanol was added to the sediment, and the mixture was again centrifuged to give a sediment, which was then dried and dissolved in water. mRNA was isolated from the whole RNAs as followings. In view of the fact that a poly A chain is attached to the 3′ terminus of mRNA, a polynucleotide having a poly T structure which was immobilized on the surface of latex beads was used to trap the mRNA, and then the mRNA was washed and eluted with spine column (Oligotex-dT30<Super>mRNA Purification Kit, Takara). Reverse transcription of the mRNA was conducted with a reverse transcriptase (Super Script II Reverse Transcriptase; catalogue No. 18064-014, GibcoBRL) using fluorescence-labeled nucleotides to give cDNAs that were introduced with Cy3-dUTP or Cy5-dUTP during the reverse transcription.
The labeled cDNAs were dissolved in TE buffer (10mM Tris-HCl/1 mM EDTA, pH8.0), and the solution was dropped on the DNA chip containing the whole genes of yeast (DNA Chip Research Inc. Japan) so that the cDNAs were hybridized on the DNA chip at 65° C. for over 12 hours. The fluoresces intensity of the DNA chip was read with a scanner, and the ratio relative to the fluorescence intensity resulting from the absence of chemical substance was estimated as the following, which is shown in Tables 1 to 9: […]

Structure (SMILES): CCCCCCCCCCCCc1ccc(S(=O)(=O)[O-])cc1.[Na+] [(17), sodium dodecylbenzosulfonate]
- The level of expressed mRNA in the presence of chemical substance/The level of expressed mRNA in the absence of chemical substance (yeast gene YAL012W): 0.9
- The level of expressed mRNA in the presence of chemical substance/The level of expressed mRNA in the absence of chemical substance (yeast gene YAL038W): 1.0
- level of expressed mRNA in the presence/in the absence of chemical substance (yeast gene YBR003W): 1.1
- level of expressed mRNA in the presence/in the absence of chemical substance (yeast gene YBR011C): 0.8
- level of expressed mRNA in the presence/in the absence of chemical substance (yeast gene YBR020W): 0.8
- The level of expressed mRNA in the presence of chemical substance/The level of expressed mRNA in the absence of chemical substance (yeast gene YBR023C): 0.7
- The level of expressed mRNA in the presence of chemical substance/The level of expressed mRNA in the absence of chemical substance (yeast gene YBR029C): 0.6
- The level of expressed mRNA in the presence of chemical substance/The level of expressed mRNA in the absence of chemical substance (yeast gene YBR183W): 1.4
- The level of expressed mRNA in the presence of chemical substance/The level of expressed mRNA in the absence of chemical substance (yeast gene YBR222C): 0.8
- The level of expressed mRNA in the presence of chemical substance/The level of expressed mRNA in the absence of chemical substance (yeast gene YBR256C): 2.6
- The level of expressed mRNA in the presence of chemical substance/The level of expressed mRNA in the absence of chemical substance (yeast gene YCL009C): 1.1
- The level of expressed mRNA in the presence of chemical substance/The level of expressed mRNA in the absence of chemical substance (yeast gene YCL064C): 0.3
- level of expressed mRNA in the presence/in the absence of chemical substance (yeast gene YCR010C): 1.9
- level of expressed mRNA in the presence/in the absence of chemical substance (yeast gene YCR034W): 0.9
- The level of expressed mRNA in the presence of chemical substance/The level of expressed mRNA in the absence of chemical substance (yeast gene YCR048W): 1.2
- The level of expressed mRNA in the presence of chemical substance/The level of expressed mRNA in the absence of chemical substance (yeast gene YCR098C): 1.7
- The level of expressed mRNA in the presence of chemical substance/The level of expressed mRNA in the absence of chemical substance (yeast gene YDR019C): 1.2
- level of expressed mRNA in the presence/in the absence of chemical substance (yeast gene YDR050C): 1.1
- level of expressed mRNA in the presence/in the absence of chemical substance (yeast gene YDR073W): 1.8
- level of expressed mRNA in the presence/in the absence of chemical substance (yeast gene YDR123C): 1.3
- level of expressed mRNA in the presence/in the absence of chemical substance (yeast gene YDR178W): 1.2
- level of expressed mRNA in the presence/in the absence of chemical substance (yeast gene YDR277C): 1.2
- level of expressed mRNA in the presence/in the absence of chemical substance (yeast gene YDR284C): 1.5
- level of expressed mRNA in the presence/in the absence of chemical substance (yeast gene YDR345C): 1.3
- The level of expressed mRNA in the presence of chemical substance/The level of expressed mRNA in the absence of chemical substance (yeast gene YDR380W): 0.8
- level of expressed mRNA in the presence/in the absence of chemical substance (yeast gene YDR400W): 1.1
- level of expressed mRNA in the presence/in the absence of chemical substance (yeast gene YDR408C): 1.1
- level of expressed mRNA in the presence/in the absence of chemical substance (yeast gene YDR483W): 1.2
- The level of expressed mRNA in the presence of chemical substance/The level of expressed mRNA in the absence of chemical substance (yeast gene YDR497C): 1.6
- The level of expressed mRNA in the presence of chemical substance/The level of expressed mRNA in the absence of chemical substance (yeast gene YDR502C): 0.9
- The level of expressed mRNA in the presence of chemical substance/The level of expressed mRNA in the absence of chemical substance (yeast gene YDR516C): 1.1
- level of expressed mRNA in the presence/in the absence of chemical substance (yeast gene YEL063C): 0.7
- level of expressed mRNA in the presence/in the absence of chemical substance (yeast gene YER015W): 1.6
- The level of expressed mRNA in the presence of chemical substance/The level of expressed mRNA in the absence of chemical substance (yeast gene YER026C): 1.7
- The level of expressed mRNA in the presence of chemical substance/The level of expressed mRNA in the absence of chemical substance (yeast gene YER053C): 1.2
- The level of expressed mRNA in the presence of chemical substance/The level of expressed mRNA in the absence of chemical substance (yeast gene YER069W): 1.1
- level of expressed mRNA in the presence/in the absence of chemical substance (yeast gene YER081W): 1.1
- The level of expressed mRNA in the presence of chemical substance/The level of expressed mRNA in the absence of chemical substance (yeast gene YER096W): 1.0
- level of expressed mRNA in the presence/in the absence of chemical substance (yeast gene YER120W): 1.2
- The level of expressed mRNA in the presence of chemical substance/The level of expressed mRNA in the absence of chemical substance (yeast gene YER178W): 1.1
- level of expressed mRNA in the presence/in the absence of chemical substance (yeast gene YFL011W): 0.8
- The level of expressed mRNA in the presence of chemical substance/The level of expressed mRNA in the absence of chemical substance (yeast gene YFL014W): 1.5
- The level of expressed mRNA in the presence of chemical substance/The level of expressed mRNA in the absence of chemical substance (yeast gene YFL030W): 1.0
- The level of expressed mRNA in the presence of chemical substance/The level of expressed mRNA in the absence of chemical substance (yeast gene YFL031W): 1.2
- The level of expressed mRNA in the presence of chemical substance/The level of expressed mRNA in the absence of chemical substance (yeast gene YFL056C): 1.0
- The level of expressed mRNA in the presence of chemical substance/The level of expressed mRNA in the absence of chemical substance (yeast gene YFL057C): 1.6
- The level of expressed mRNA in the presence of chemical substance/The level of expressed mRNA in the absence of chemical substance (yeast gene YFR047C): 1.5
- level of expressed mRNA in the presence/in the absence of chemical substance (yeast gene YGL012W): 0.9
- The level of expressed mRNA in the presence of chemical substance/The level of expressed mRNA in the absence of chemical substance (yeast gene YGL022W): 0.9
- level of expressed mRNA in the presence/in the absence of chemical substance (yeast gene YGL115W): 0.8
- The level of expressed mRNA in the presence of chemical substance/The level of expressed mRNA in the absence of chemical substance (yeast gene YGL126W): 0.9
- level of expressed mRNA in the presence/in the absence of chemical substance (yeast gene YGL205W): 3.9
- The level of expressed mRNA in the presence of chemical substance/The level of expressed mRNA in the absence of chemical substance (yeast gene YGL209W): 1.1
- The level of expressed mRNA in the presence of chemical substance/The level of expressed mRNA in the absence of chemical substance (yeast gene YGL248W): 1.1
- The level of expressed mRNA in the presence of chemical substance/The level of expressed mRNA in the absence of chemical substance (yeast gene YGR037C): 1.4
- The level of expressed mRNA in the presence of chemical substance/The level of expressed mRNA in the absence of chemical substance (yeast gene YGR055W): 0.7
- level of expressed mRNA in the presence/in the absence of chemical substance (yeast gene YGR096W): 0.8
- level of expressed mRNA in the presence/in the absence of chemical substance (yeast gene YGR191W): 0.8
- The level of expressed mRNA in the presence of chemical substance/The level of expressed mRNA in the absence of chemical substance (yeast gene YGR194C): 1.1
- level of expressed mRNA in the presence/in the absence of chemical substance (yeast gene YGR204W): 1.0
- The level of expressed mRNA in the presence of chemical substance/The level of expressed mRNA in the absence of chemical substance (yeast gene YGR256W): 1.1
- The level of expressed mRNA in the presence of chemical substance/The level of expressed mRNA in the absence of chemical substance (yeast gene YGR282C): 1.1
- level of expressed mRNA in the presence/in the absence of chemical substance (yeast gene YGR288W): 1.2
- level of expressed mRNA in the presence/in the absence of chemical substance (yeast gene YHR025W): 1.0
- The level of expressed mRNA in the presence of chemical substance/The level of expressed mRNA in the absence of chemical substance (yeast gene YHR111W): 1.1
- level of expressed mRNA in the presence/in the absence of chemical substance (yeast gene YHR123W): 1.1
- The level of expressed mRNA in the presence of chemical substance/The level of expressed mRNA in the absence of chemical substance (yeast gene YHR137W): 0.8
- The level of expressed mRNA in the presence of chemical substance/The level of expressed mRNA in the absence of chemical substance (yeast gene YHR174W): 1.0
- The level of expressed mRNA in the presence of chemical substance/The level of expressed mRNA in the absence of chemical substance (yeast gene YHR176W): 1.4
- level of expressed mRNA in the presence/in the absence of chemical substance (yeast gene YHR210C): 1.4
- level of expressed mRNA in the presence/in the absence of chemical substance (yeast gene YIL006W): 0.8
- The level of expressed mRNA in the presence of chemical substance/The level of expressed mRNA in the absence of chemical substance (yeast gene YIL045W): 1.1
- The level of expressed mRNA in the presence of chemical substance/The level of expressed mRNA in the absence of chemical substance (yeast gene YIL107C): 1.2
- The level of expressed mRNA in the presence of chemical substance/The level of expressed mRNA in the absence of chemical substance (yeast gene YIL154C): 1.2
- The level of expressed mRNA in the presence of chemical substance/The level of expressed mRNA in the absence of chemical substance (yeast gene YIL155C): 1.1
- The level of expressed mRNA in the presence of chemical substance/The level of expressed mRNA in the absence of chemical substance (yeast gene YIR034C): 1.0
- The level of expressed mRNA in the presence of chemical substance/The level of expressed mRNA in the absence of chemical substance (yeast gene YIR036C): 1.5
- The level of expressed mRNA in the presence of chemical substance/The level of expressed mRNA in the absence of chemical substance (yeast gene YJL031C): 1.2
- The level of expressed mRNA in the presence of chemical substance/The level of expressed mRNA in the absence of chemical substance (yeast gene YJL068C): 1.4
- The level of expressed mRNA in the presence of chemical substance/The level of expressed mRNA in the absence of chemical substance (yeast gene YJL088W): 1.4
- The level of expressed mRNA in the presence of chemical substance/The level of expressed mRNA in the absence of chemical substance (yeast gene YJL099W): 1.2
- level of expressed mRNA in the presence/in the absence of chemical substance (yeast gene YJL121C): 1.1
- level of expressed mRNA in the presence/in the absence of chemical substance (yeast gene YJL167W): 1.4
- The level of expressed mRNA in the presence of chemical substance/The level of expressed mRNA in the absence of chemical substance (yeast gene YJL172W): 1.8
- level of expressed mRNA in the presence/in the absence of chemical substance (yeast gene YJL216C): 1.2
- The level of expressed mRNA in the presence of chemical substance/The level of expressed mRNA in the absence of chemical substance (yeast gene YJL219W): 1.6
- level of expressed mRNA in the presence/in the absence of chemical substance (yeast gene YJR077C): 1.0
- The level of expressed mRNA in the presence of chemical substance/The level of expressed mRNA in the absence of chemical substance (yeast gene YJR137C): 0.9
- level of expressed mRNA in the presence/in the absence of chemical substance (yeast gene YJR143C): 0.7
- The level of expressed mRNA in the presence of chemical substance/The level of expressed mRNA in the absence of chemical substance (yeast gene YJR148W): 1.3
